Assays:
[1] = Half life in C57BL/6J mouse at 5 mg/kg; assay type: ADME, organism-based; design: dose 5 mg/kg; settings: in vivo
Acyl-CoA desaturase 1 = molecular target: T1, Acyl-CoA desaturase 1 (Mus musculus, UniProt P13516); test: Inhibition of SCD1 in mouse microsomes assessed as conversion of [14C]stearate to [14C]oleate after 60 mins; design: species or system Microsome
T1 sequence (P13516 whole entry): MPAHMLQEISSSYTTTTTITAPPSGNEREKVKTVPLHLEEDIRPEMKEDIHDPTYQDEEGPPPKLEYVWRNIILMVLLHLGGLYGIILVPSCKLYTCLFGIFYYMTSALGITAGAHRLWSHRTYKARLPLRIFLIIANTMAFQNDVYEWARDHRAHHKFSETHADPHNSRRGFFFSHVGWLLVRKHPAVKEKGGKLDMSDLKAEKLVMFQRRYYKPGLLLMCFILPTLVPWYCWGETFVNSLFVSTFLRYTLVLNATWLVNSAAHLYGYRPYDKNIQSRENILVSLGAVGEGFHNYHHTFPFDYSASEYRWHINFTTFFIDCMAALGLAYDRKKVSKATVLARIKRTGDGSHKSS

[2] = Clearance in C57BL/6J mouse at 5 mg/kg, iv measured up to 8 hrs; assay type: ADME, organism-based; design: dose 5 mg/kg, route intravenous; settings: in vivo
[3] = Volume of distribution in C57BL/6J mouse at 5 mg/kg, iv measured up to 8 hrs; assay type: ADME, organism-based; design: dose 5 mg/kg, route intravenous; settings: in vivo
[4] = molecular target: T2, Acyl-CoA 6-desaturase (Homo sapiens) (UniProt O95864); test: Inhibition of delta-6 desaturase in human microsomes assessed as conversion of [14C]linolenic acid to [14C]stearidonic acid at 10 uM; settings: Microsome
T2 sequence (whole entry): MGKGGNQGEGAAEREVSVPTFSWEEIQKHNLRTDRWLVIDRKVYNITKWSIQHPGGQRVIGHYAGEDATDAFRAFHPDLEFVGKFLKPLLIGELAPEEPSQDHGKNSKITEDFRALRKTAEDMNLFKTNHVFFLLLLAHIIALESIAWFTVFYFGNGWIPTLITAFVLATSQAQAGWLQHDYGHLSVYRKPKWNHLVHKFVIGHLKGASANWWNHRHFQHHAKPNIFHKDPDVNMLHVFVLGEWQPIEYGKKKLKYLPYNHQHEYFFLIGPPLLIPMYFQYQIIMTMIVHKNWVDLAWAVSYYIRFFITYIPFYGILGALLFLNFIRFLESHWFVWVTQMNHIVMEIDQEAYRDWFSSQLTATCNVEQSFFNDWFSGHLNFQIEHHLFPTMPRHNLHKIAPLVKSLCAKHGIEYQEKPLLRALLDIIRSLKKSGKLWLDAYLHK

[5] = AUC (0 to 8 hrs) in C57BL/6J mouse at 5 mg/kg, iv measured up to 8 hrs; assay type: ADME, organism-based; design: time < 8 hr, dose 5 mg/kg, route intravenous; settings: plasma
Stearoyl-CoA desaturase [6] = molecular target: T3, Stearoyl-CoA desaturase (Homo sapiens, UniProt O00767); test: Inhibition of SCD1 in human microsomes assessed as conversion of [14C]stearate to [14C]oleate after 60 mins; design: species or system Microsome
T3 sequence (O00767 whole entry): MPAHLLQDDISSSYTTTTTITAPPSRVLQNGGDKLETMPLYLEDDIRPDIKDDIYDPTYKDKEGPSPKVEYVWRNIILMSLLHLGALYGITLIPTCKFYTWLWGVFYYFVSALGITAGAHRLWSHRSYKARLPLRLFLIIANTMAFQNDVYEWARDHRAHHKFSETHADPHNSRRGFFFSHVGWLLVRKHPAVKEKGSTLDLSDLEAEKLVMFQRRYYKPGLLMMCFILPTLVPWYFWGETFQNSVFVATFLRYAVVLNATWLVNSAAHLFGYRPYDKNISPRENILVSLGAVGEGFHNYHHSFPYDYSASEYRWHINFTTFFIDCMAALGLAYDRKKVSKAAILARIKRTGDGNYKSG

Stearoyl-CoA desaturase [7] = molecular target: T3, Stearoyl-CoA desaturase; test: Inhibition of human SCD1 expressed in HEK293A cells assessed as conversion of [14C]stearate to [14C]oleate; assay type: cell-based, HEK293-A
Mus musculus [8] = test: AUC in C57BL/6J mouse at 5 mg/kg, iv measured up to 8 hrs; settings: in vivo
Mus musculus [9] = test: Inhibition of SCD1 in db/db mouse liver assessed as conversion of [14C]stearate to [14C]oleate administered through oral gavage; assay type: functional; settings: read-out: ID50 (the source's name)
[10] = Oral bioavailability in C57BL/6J mouse at 20 mg/kg measured up to 8 hrs; assay type: ADME, organism-based; settings: in vivo
[11] = AUC (0 to 8 hrs) in C57BL/6J mouse at 20 mg/kg, po measured up to 8 hrs; assay type: ADME, organism-based; design: time < 8 hr, dose 20 mg/kg, route oral; settings: plasma
[12] = Cmax in C57BL/6J mouse at 20 mg/kg, po measured up to 8 hrs; assay type: ADME, organism-based; design: dose 20 mg/kg, route oral; settings: in vivo
[13] = Half life in C57BL/6J mouse at 20 mg/kg, po measured up to 8 hrs; assay type: ADME, organism-based; design: time < 8 hr, dose 20 mg/kg, route oral; settings: in vivo
[14] = Tmax in C57BL/6J mouse at 20 mg/kg, po measured up to 8 hrs; assay type: ADME, organism-based; design: dose 20 mg/kg, route oral; settings: in vivo

COc1ccc(/C=C/C(=O)Nc2ncc(Cc3cccc(C(F)(F)F)c3)s2)cc1
half-life [1]: 0.4 h
IC50 (Acyl-CoA desaturase 1): 2 nM
clearance [2]: 32 mL/min/kg
Vd [3]: 0.3 L/kg
inhibition [4]: 21%
AUC(0-t) at 8 h [5]: 2700 ng·h/mL
IC50 (Stearoyl-CoA desaturase [6]): 3 nM

COc1ccc(C(=O)Nc2ncc(Cc3cc(C(F)(F)F)cc(C(F)(F)F)c3)s2)cc1OCCO
IC50 (Stearoyl-CoA desaturase [7]): 26 nM
IC50 (Stearoyl-CoA desaturase [6]): 0.2 nM

COc1ccc(C(=O)Nc2ncc(Cc3cc(F)cc(F)c3)s2)cc1OCCO
IC50 (Acyl-CoA desaturase 1): 0.1 nM
IC50 (Stearoyl-CoA desaturase [7]): 116 nM
IC50 (Stearoyl-CoA desaturase [6]): 2.9 nM

COc1ccc(C(=O)Nc2ncc(Cc3ccc(C)c(F)c3)s2)cc1OCCO
IC50 (Acyl-CoA desaturase 1): 22 nM
IC50 (Stearoyl-CoA desaturase [7]): 639 nM
IC50 (Stearoyl-CoA desaturase [6]): 82 nM

COc1ccc(C(=O)Nc2ncc(Cc3cccc(C(F)(F)F)c3)s2)cc1OCC(O)CO (stereo not drawn)
IC50 (Stearoyl-CoA desaturase [6]): > 10000 nM

Cc1ccc(C(=O)Nc2ncc(Cc3cccc(C(F)(F)F)c3)s2)cc1C
IC50 (Acyl-CoA desaturase 1): 8220 nM

COc1ccc(C(=O)Nc2ncc(Cc3cc(Cl)cc(Cl)c3)s2)cc1OCCO
IC50 (Acyl-CoA desaturase 1): 0.7 nM
IC50 (Stearoyl-CoA desaturase [7]): 13 nM
IC50 (Stearoyl-CoA desaturase [6]): 1 nM

COc1cc(C(=O)Nc2ncc(Cc3cccc(C(F)(F)F)c3)s2)ccc1OCC(=O)O
inhibition [4]: < 5%
IC50 (Stearoyl-CoA desaturase [6]): 4380 nM

COc1ccc(C(=O)Nc2ncc(Cc3cccc(C(F)(F)F)c3)s2)cc1OCCCO
IC50 (Stearoyl-CoA desaturase [6]): > 10000 nM

COc1ccc2cc(C(=O)Nc3ncc(Cc4cccc(C(F)(F)F)c4)s3)ccc2c1
IC50 (Acyl-CoA desaturase 1): 5 nM
inhibition [4]: < 5%
IC50 (Stearoyl-CoA desaturase [6]): 9 nM

COc1ccc(C(=O)Nc2ncc(Cc3cccc(F)c3)s2)cc1OCCO
IC50 (Acyl-CoA desaturase 1): 2 nM
IC50 (Stearoyl-CoA desaturase [7]): 34 nM
IC50 (Stearoyl-CoA desaturase [6]): 11 nM

COc1ccc(C(=O)Nc2ncc(Cc3cccc(C(F)(F)F)c3)s2)cc1OCCO
half-life [1]: 0.9 h
Vd [3]: 0.42 L/kg
AUC (Mus musculus [8]): 4700 ng·h/mL
inhibition [4]: 15%
AUC(0-t) at 8 h [5]: 17000 ng·h/mL
ED50 (Mus musculus [9]): 2 mg/kg

COc1cc(C(=O)Nc2ncc(Cc3cccc(C(F)(F)F)c3)s2)ccc1OCCN1CCOCC1
IC50 (Acyl-CoA desaturase 1): 528 nM
inhibition [4]: < 5%
IC50 (Stearoyl-CoA desaturase [6]): 1400 nM

COc1cc(C(=O)Nc2ncc(Cc3cccc(C(F)(F)F)c3)s2)ccc1OCCO
half-life [1]: 1.4 h
IC50 (Acyl-CoA desaturase 1): 3 nM
bioavailability [10]: 0.2%
clearance [2]: 3.4 mL/min/kg
AUC(0-t) at 8 h [11]: 150 ng·h/mL
Vd [3]: 0.42 L/kg
Cmax [12]: 70 ng/mL
inhibition [4]: 16%
AUC(0-t) at 8 h [5]: 24000 ng·h/mL
IC50 (Stearoyl-CoA desaturase [6]): 10 nM
half-life [13]: 1.3 h
Tmax [14]: 0.5 h

COc1ccc(C(=O)Nc2ncc(Cc3ccc(Cl)c(Cl)c3)s2)cc1OCCO
IC50 (Acyl-CoA desaturase 1): 0.8 nM
IC50 (Stearoyl-CoA desaturase [7]): 13 nM
IC50 (Stearoyl-CoA desaturase [6]): 1 nM

COc1ccc(C(=O)Nc2ncc(Cc3cccc(C(F)(F)F)c3)s2)cc1OCC(=O)O
IC50 (Acyl-CoA desaturase 1): > 10000 nM

O=C(Nc1ncc(Cc2cccc(C(F)(F)F)c2)s1)c1ccc2ccccc2c1
IC50 (Acyl-CoA desaturase 1): > 10000 nM

COc1ccc(C(=O)Nc2ncc(Cc3cccc(C(F)(F)F)c3)s2)cc1OC
IC50 (Acyl-CoA desaturase 1): 76 nM
inhibition [4]: < 5%
IC50 (Stearoyl-CoA desaturase [6]): 145 nM

COc1ccc(C(=O)Nc2ncc(Cc3cc(Cl)ccc3Cl)s2)cc1OCCO
IC50 (Acyl-CoA desaturase 1): 9 nM
IC50 (Stearoyl-CoA desaturase [7]): 429 nM
IC50 (Stearoyl-CoA desaturase [6]): 125 nM

COc1ccc(C(=O)Nc2ncc(Cc3ccc(F)c(Cl)c3)s2)cc1OCCO
IC50 (Acyl-CoA desaturase 1): 1 nM
bioavailability [10]: 38%
Tmax [11]: 1 h
Cmax [12]: 3600 ng/mL
IC50 (Stearoyl-CoA desaturase [7]): 17 nM
IC50 (Stearoyl-CoA desaturase [6]): 2 nM
AUC at 8 h [13]: 14000 ng·h/mL
ED50 (Mus musculus [9]): 2 mg/kg
half-life [14]: 2.1 h

COc1ccc(C(=O)Nc2ncc(Cc3cccc(Cl)c3)s2)cc1OCCO
IC50 (Acyl-CoA desaturase 1): 1 nM
bioavailability [10]: 12%
Tmax [11]: 2 h
Cmax [12]: 1800 ng/mL
IC50 (Stearoyl-CoA desaturase [7]): 9 nM
IC50 (Stearoyl-CoA desaturase [6]): 4 nM
AUC at 8 h [13]: 10000 ng·h/mL
ED50 (Mus musculus [9]): 1 mg/kg
half-life [14]: 5.4 h

COc1cccc(C(=O)Nc2ncc(Cc3cccc(C(F)(F)F)c3)s2)c1
IC50 (Acyl-CoA desaturase 1): 193 nM
inhibition [4]: 53%
IC50 (Stearoyl-CoA desaturase [6]): 915 nM

COc1ccc(C(=O)Nc2ncc(Cc3cccc(OC(F)(F)F)c3)s2)cc1OCCO
IC50 (Acyl-CoA desaturase 1): 3 nM
bioavailability [10]: 8%
Tmax [11]: 1.3 h
Cmax [12]: 1200 ng/mL
IC50 (Stearoyl-CoA desaturase [7]): 59 nM
IC50 (Stearoyl-CoA desaturase [6]): 4 nM
AUC at 8 h [13]: 4900 ng·h/mL
ED50 (Mus musculus [9]): 8 mg/kg
half-life [14]: 1.5 h

COc1ccc(C(=O)Nc2ncc(Cc3cccc(C(F)(F)F)c3)s2)cc1OCC(C)(C)O
IC50 (Acyl-CoA desaturase 1): > 10000 nM

COc1ccc(C(=O)Nc2ncc(Cc3cccc(C(C)(C)C)c3)s2)cc1OCCO
IC50 (Acyl-CoA desaturase 1): 1310 nM

COc1ccc(C(=O)Nc2ncc(Cc3ccc(F)c(C(F)(F)F)c3)s2)cc1OCCO
IC50 (Acyl-CoA desaturase 1): 0.2 nM
bioavailability [10]: 3%
Tmax [11]: 1.3 h
Cmax [12]: 550 ng/mL
IC50 (Stearoyl-CoA desaturase [7]): 8 nM
IC50 (Stearoyl-CoA desaturase [6]): 0.6 nM
AUC at 8 h [13]: 2000 ng·h/mL
ED50 (Mus musculus [9]): 5 mg/kg
half-life [14]: 1.3 h

COc1ccc(C(=O)Nc2ncc(Cc3ccc(F)c(F)c3)s2)cc1OCCO
IC50 (Acyl-CoA desaturase 1): 2 nM
IC50 (Stearoyl-CoA desaturase [7]): 34 nM
IC50 (Stearoyl-CoA desaturase [6]): 9 nM

COc1ccc(C(=O)Nc2ncc(Cc3cccc(C(F)(F)F)c3)s2)cc1
IC50 (Stearoyl-CoA desaturase [6]): 1220 nM

COc1ccc(C(=O)Nc2ncc(Cc3cccc(C(F)(F)F)c3)s2)cc1OCC(C)O (stereo not drawn)
IC50 (Acyl-CoA desaturase 1): 2170 nM
IC50 (Stearoyl-CoA desaturase [6]): 2160 nM

— ChEMBL document CHEMBL1153048, “Novel and potent inhibitors of stearoyl-CoA desaturase-1. Part I: Discovery of 3-(2-hydroxyethoxy)-4-methoxy-N-[5-(3-trifluoromethylbenzyl)thiazol-2-yl]benzamide” (Bioorg Med Chem Lett, 2009)
